Results reported in US12030897B2, “Pyrrolo[2,1-f][1,2,4]triazine derivatives serving as selective HER2 inhibitors and application thereof” (MEDSHINE DISCOVERY INC., priority 2018, dated 2024).
Several values for one entry are separate records, joined by “and”; a condition that tells them apart may be missing. Equal values may be shown once. Read-outs that look alike come from different tables or passages of the source.

How the values were obtained:
[1] = Concentration of Example 4 in plasma, tumor tissue and brain tissue (NCI-N87 model, day 21); format: in vivo, BALB/c nude mice; conditions: BALB/c nude, mouse, 100 mg/kg; for concentration at 0.5 h: day 21, 0.5 h after last administration; for concentration at 1 h: day 21, 1 h after last administration; for concentration at 2 h: day 21, 2 h after last administration
Experimental: On day 21, the whole blood, tumor tissue, and brain tissue of two mice were collected 0.5 hour, 1 hour, and 2 hours after the last administration. The whole blood was centrifuged to prepare plasma, and the tumor tissue and brain tissue were homogenized to prepare tissue homogenate, and the drug concentration in plasma and tissue homogenate was analyzed by the LC-MS/MS method.

HER1 (ErbB1) = HER1 (ErbB1) (Homo sapiens (Human), UniProt P00533); assay: In vitro enzyme activity, HER1 (ErbB1), [γ-33P]ATP filter assay; format: biochemical
Sequence of HER1 (ErbB1) (P00533 25-1210): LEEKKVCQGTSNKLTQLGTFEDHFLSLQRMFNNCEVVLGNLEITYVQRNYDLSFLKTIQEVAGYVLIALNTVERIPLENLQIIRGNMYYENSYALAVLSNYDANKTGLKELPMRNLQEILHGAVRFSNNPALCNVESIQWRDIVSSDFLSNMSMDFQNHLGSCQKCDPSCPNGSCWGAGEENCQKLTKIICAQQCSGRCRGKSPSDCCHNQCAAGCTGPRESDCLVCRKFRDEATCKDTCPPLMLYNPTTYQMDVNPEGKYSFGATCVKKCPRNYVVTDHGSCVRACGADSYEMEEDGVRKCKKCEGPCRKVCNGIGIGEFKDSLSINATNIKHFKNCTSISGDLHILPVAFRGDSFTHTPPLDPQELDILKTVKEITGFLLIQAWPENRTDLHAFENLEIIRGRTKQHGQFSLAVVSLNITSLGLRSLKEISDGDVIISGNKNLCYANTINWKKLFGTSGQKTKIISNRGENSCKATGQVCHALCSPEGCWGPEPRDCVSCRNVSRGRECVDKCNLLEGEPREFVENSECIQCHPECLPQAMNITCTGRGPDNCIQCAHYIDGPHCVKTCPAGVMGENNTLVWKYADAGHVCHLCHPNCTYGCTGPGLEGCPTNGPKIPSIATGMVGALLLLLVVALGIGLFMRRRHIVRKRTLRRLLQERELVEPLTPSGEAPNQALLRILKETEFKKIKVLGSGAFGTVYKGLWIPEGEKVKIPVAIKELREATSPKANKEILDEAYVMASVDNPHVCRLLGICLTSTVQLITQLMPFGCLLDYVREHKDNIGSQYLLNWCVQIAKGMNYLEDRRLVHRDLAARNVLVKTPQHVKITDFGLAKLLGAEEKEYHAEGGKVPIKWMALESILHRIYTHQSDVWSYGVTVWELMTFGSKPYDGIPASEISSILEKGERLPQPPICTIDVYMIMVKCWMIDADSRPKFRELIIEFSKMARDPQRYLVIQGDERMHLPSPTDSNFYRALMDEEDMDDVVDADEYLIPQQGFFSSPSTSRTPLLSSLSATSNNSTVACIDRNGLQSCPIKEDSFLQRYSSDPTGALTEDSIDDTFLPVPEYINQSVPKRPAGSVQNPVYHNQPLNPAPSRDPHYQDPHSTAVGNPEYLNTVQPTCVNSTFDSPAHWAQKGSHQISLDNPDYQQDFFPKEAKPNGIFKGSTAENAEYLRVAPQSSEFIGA
Experimental: The object of this test is to detect the in vitro inhibitory activity of the compound against HER1 (ErbB1), HER2 (ErbB2) and HER4 (ErbB4). The enzymes used in this test were human ErbB1, ErbB2 and ErbB4.
Experimental Steps and Methods (96-Well Plate):
5-fold diluted tested compound buffer (5 μL), peptide substrate poly(Glu, Tyr) (4:1) (2.5 μL), ErbB (4-20 ng, 2.5 μL), MnCl2 (50 mM, 1.25 μL), dH2O (3.75 μL) and [γ-^33P]ATP (10 μL) were added, and incubated at 30° C. for 10 min. 3% phosphoric acid was added to terminate the reaction, and 10 μL of the specimen was transferred to Filtermate A. The filter was washed with 75 mM phosphoric acid for three times and methanol once, and transferred to a sealed plastic bag, and a scintillation fluid mixture (4 mL) was added, The intensity of the emitted photons was detected on the scintillation luminescence counter. The photon intensity of the enzyme sample was compared with the photon intensity of the internal control sample, and the level of photon intensity reflected the strength of the tyrosine kinase activity.

[2] = test system: human gastric cancer NCI-N87 cell subcutaneous xenograft tumor; assay: In vivo efficacy, NCI-N87 subcutaneous xenograft tumor model; set-up: species or system BALB/c nude mice; conditions: 100 mg/kg
Experimental: Experiment object: to study the efficacy of the tested compound on human gastric cancer NCI-N87 cell subcutaneous xenograft tumor in the BALB/c nude mouse model.
Experimental animals: female BALB/c nude mice, 6 to 8 weeks old, weight: 18 to 22 grams; Supplier: Shanghai Xipuer-Bikai Laboratory Animal Co., Ltd.
Human gastric cancer NCI-N87 cells were cultured in a monolayer in vitro, and the culture conditions were: RPMI-1640 medium with 10% fetal bovine serum, 100 U/mL penicillin, 100 μg/mL streptomycin and 2 mM glutamine, and 37° C., 5% CO2. Conventional digestion treatment with pancreatin-EDTA for passage was carried out twice a week. When the cell saturation was 80% to 90%, the cells were collected, counted and inoculated.
0.2 mL of (10×10^6) NCI-N87 cells were subcutaneously inoculated into the right back of each nude mouse (PBS:Matrigel=1:1). The grouping and administration were started when the average tumor volume reached 130 mm^3.
The tested compound was prepared as a 10 mg/mL solution, and the solvent was 10% NMP+10% ethylene glycol stearate+80% water.
The experimental index was to investigate whether the tumor growth was inhibited, delayed or cured. Tumor diameter was measured twice a week with a vernier caliper. the calculation formula of tumor volume: V=0.5a×b^2, wherein a and b represented the long and short diameters of the tumor, respectively.
The anti-tumor efficacy of the compound was evaluated by TGI (%) or relative tumor proliferation rate T/C (%). TGI (%) reflected the tumor growth inhibition rate.
relative tumor growth rate T/C (%): calculation formula was as follows: T/C %=TRTV/CRTV (TRTV: RTV of the treatment group; CRTV: RTV of the solvent control group). The relative tumor volume (RTV) was calculated according to the results of the tumor measurement. The calculation equation was RTV=Vt/V0, where V0 was the average tumor volume measured at beginning of the grouping and administration (i.e., d0), and Vt was the average tumor volume at the time of a certain measurement. TRTV and CRTV were obtained from the data on the same day.
Statistical analysis included mean value and standard error (SEM) of the tumor volume of each group at each time point. […] The comparison between two groups was analyzed by T-test, and the comparison between three or more groups was analyzed by one-way ANOVA.

CYP2D6 = CYP2D6 (Homo sapiens (Human), UniProt P10635); assay: Inhibition of human liver microsomal cytochrome P450 isoenzyme CYP2D6; format: in vitro ADME; conditions: human liver microsomes
Sequence of CYP2D6 (P10635 whole entry): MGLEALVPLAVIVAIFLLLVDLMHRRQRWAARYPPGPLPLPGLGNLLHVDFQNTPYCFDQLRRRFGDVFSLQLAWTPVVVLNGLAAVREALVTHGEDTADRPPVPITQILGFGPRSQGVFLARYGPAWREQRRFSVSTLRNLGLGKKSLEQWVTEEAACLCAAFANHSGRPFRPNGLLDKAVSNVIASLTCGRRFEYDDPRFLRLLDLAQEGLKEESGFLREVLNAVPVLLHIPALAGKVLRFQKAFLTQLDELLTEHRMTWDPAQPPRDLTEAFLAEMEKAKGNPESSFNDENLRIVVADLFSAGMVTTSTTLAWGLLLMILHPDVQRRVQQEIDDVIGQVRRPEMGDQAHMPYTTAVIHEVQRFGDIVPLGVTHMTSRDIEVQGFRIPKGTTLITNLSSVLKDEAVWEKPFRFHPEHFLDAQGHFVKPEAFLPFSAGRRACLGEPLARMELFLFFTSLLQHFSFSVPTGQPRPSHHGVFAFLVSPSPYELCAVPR
Experimental: (§1) The object of this study was to evaluate the effect of Example 4 on the activities of five isoenzymes (CYP1A2, CYP2C9, CYP2C19, CYP2D6 and CYP3A4) of human liver microsomal cytochrome P450 (CYP) using an in vitro test system. The specific probe substrates of CYP450 isozymes were incubated with human liver microsomes and different concentrations of Example 4, and reduced nicotinamide adenine dinucleotide phosphate (NADPH) was added to initiate the reaction. After the reaction was completed, the samples were treated, and liquid chromatography tandem mass spectrometry (LC/MS/MS) was used to detect the metabolites produced by specific substrates.

CYP1A2 = CYP1A2 (Homo sapiens (Human), UniProt P05177); format: in vitro ADME; conditions: microsomes
Sequence of CYP1A2 (P05177 whole entry): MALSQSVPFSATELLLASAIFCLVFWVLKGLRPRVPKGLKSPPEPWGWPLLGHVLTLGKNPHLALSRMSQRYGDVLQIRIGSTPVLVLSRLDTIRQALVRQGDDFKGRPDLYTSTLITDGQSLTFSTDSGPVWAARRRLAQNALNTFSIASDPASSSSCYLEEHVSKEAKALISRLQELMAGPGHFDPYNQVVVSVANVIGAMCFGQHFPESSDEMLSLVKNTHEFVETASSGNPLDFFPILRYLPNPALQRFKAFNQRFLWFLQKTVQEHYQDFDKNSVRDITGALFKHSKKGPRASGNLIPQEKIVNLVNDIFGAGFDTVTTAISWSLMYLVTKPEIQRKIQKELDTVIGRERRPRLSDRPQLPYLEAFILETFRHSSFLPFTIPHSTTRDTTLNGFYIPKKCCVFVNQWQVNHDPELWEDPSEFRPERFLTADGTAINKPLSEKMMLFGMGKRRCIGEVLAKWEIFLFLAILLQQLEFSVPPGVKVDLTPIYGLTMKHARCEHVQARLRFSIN
Experimental: as §1

[3] = brain tissue, read-out: Drug concentration, brain tissue
[4] = plasma, read-out: Drug concentration, plasma
[5] = tumor tissue, read-out: Drug concentration, tumor tissue

Compound `Cc1cc(Nc2ncnn3ccc(CN4CCC(N)CC4)c23)ccc1Oc1ccn2ncnc2c1` [Example 4] has a concentration at 0.5 h [1, 3] of 0.538 µM, a concentration at 1 h [1, 3] of 0.631 µM and a concentration at 2 h [1, 3] of 1.01 µM. It also gave a concentration at 0.5 h [1, 4] of 8.6 µM, a concentration at 1 h [1, 4] of 7.58 µM and a concentration at 2 h [1, 4] of 12.8 µM. For the same compound, the concentration at 0.5 h [1, 5] was 9.45 µM, the concentration at 1 h [1, 5] was 11.2 µM and the concentration at 2 h [1, 5] was 21.4 µM. The IC50 (HER1 (ErbB1)) was 0.161 µM, the “body weight of the mice in the treatment group” value [2] was “decreased slightly” and the T/C ([2]; day 21) was 2.92%. The TGI ([2]; day 21) was 112.13%, the “Tumor volume (Day 21)” value ([2]; day 21, mean ± SEM) was 29 mm^3 and 29 ± 7 mm^3 and the IC50 (CYP2D6) was 25.4 µM. It also gave an IC50 (CYP1A2) greater than 50 µM.
